Source: ChEMBL document CHEMBL1201861, “Genomics of Drug Sensitity in Cancer screening data, Wellcome Trust Sanger Institute”

What was measured:
HN = experiment: cells; type: functional, cell-based, Homo sapiens; settings: Homo sapiens, HN
Description: SANGER: Inhibition of human HN cell growth in a cell viability assay.

HCC1954 = experiment: cells; type: functional, cell-based, Homo sapiens; settings: Homo sapiens, HCC1954;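 note: growth inhibition of human HCC1954 cells, read out with a cell viability assay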
Description: SANGER: Inhibition of human HCC1954 cell growth in a cell viability assay.

HuCCT-1 = experiment: cells; type: functional, cell-based, Homo sapiens, HuCCT1; settings: Homo sapiens, HuCCT-1;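 note: growth inhibition of HuCCT-1 cells, read out by a cell viability assay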
Description: SANGER: Inhibition of human HuCCT1 cell growth in a cell viability assay.

SW-620 = experiment: cells; type: functional, cell-based, Homo sapiens; settings: Homo sapiens, SW-620;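 note: growth inhibition of human SW-620 cells, measured by a cell viability assay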
Description: SANGER: Inhibition of human SW620 cell growth in a cell viability assay.

HGC-27 = experiment: cells; type: functional, cell-based, Homo sapiens; settings: Homo sapiens, HGC-27;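 note: growth inhibition of human HGC-27 cells, read out in a cell viability assay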
Description: SANGER: Inhibition of human HGC-27 cell growth in a cell viability assay.

SW13 = experiment: cells; type: functional, cell-based, Homo sapiens; settings: Homo sapiens, SW13;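 note: IC50 is inhibition of SW13 cell growth, read out with a cell viability assay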
Description: SANGER: Inhibition of human SW13 cell growth in a cell viability assay.

HuP-T3 = experiment: cells; type: functional, cell-based, Homo sapiens; settings: Homo sapiens, HuP-T3;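 note: HuP-T3 cell growth inhibition, read out with a cell viability assay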
Description: SANGER: Inhibition of human HuP-T3 cell growth in a cell viability assay.

T47D = experiment: cells; type: functional, cell-based, Homo sapiens; settings: Homo sapiens, T47D;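 note: growth inhibition of human T47D cells, measured with a cell viability assay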
Description: SANGER: Inhibition of human T47D cell growth in a cell viability assay.

SK-LU-1 = experiment: cells; type: functional, cell-based, Homo sapiens; settings: Homo sapiens, SK-LU-1;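 note: cell viability assay measuring growth inhibition of human SK-LU-1 cells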
Description: SANGER: Inhibition of human SK-LU-1 cell growth in a cell viability assay.

BFTC-909 = experiment: cells; type: functional, cell-based, Homo sapiens; settings: Homo sapiens, BFTC-909
Description: SANGER: Inhibition of human BFTC-909 cell growth in a cell viability assay.

TUR = experiment: cells; type: functional, cell-based, Homo sapiens; settings: Homo sapiens, TUR;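 note: growth inhibition of human TUR cells, read out with a cell viability assay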
Description: SANGER: Inhibition of human TUR cell growth in a cell viability assay.

SAS = experiment: cells; type: functional, cell-based, Homo sapiens; settings: Homo sapiens, SAS;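 note: growth inhibition of SAS cells, read out with a cell viability assay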
Description: SANGER: Inhibition of human SAS cell growth in a cell viability assay.

PC-14 = experiment: cells; type: functional, cell-based, Homo sapiens; settings: Homo sapiens, PC-14;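 note: cell viability assay measuring inhibition of PC-14 cell growth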
Description: SANGER: Inhibition of human PC-14 cell growth in a cell viability assay.

YAPC = experiment: cells; type: functional, cell-based, Homo sapiens; settings: Homo sapiens, YAPC;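 note: growth inhibition of YAPC cells, measured with a cell viability assay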
Description: SANGER: Inhibition of human YAPC cell growth in a cell viability assay.

NCI-H187 = experiment: cells; type: functional, cell-based, Homo sapiens; settings: Homo sapiens, NCI-H187;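 note: growth inhibition of NCI-H187 cells, read out as cell viability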
Description: SANGER: Inhibition of human NCI-H187 cell growth in a cell viability assay.

HO-1-N-1 = experiment: cells; type: functional, cell-based, Homo sapiens; settings: Homo sapiens, HO-1-N-1;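 note: growth inhibition of human HO-1-N-1 cells, read out with a cell viability assay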
Description: SANGER: Inhibition of human HO-1-N-1 cell growth in a cell viability assay.

SW780 = experiment: cells; type: functional, cell-based, Homo sapiens; settings: Homo sapiens, SW780;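 note: growth inhibition of the cells, read out with a cell viability assay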
Description: SANGER: Inhibition of human SW780 cell growth in a cell viability assay.

GCT = experiment: cells; type: functional, cell-based, Homo sapiens; settings: Homo sapiens, GCT;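 note: GCT cell line proliferation inhibition, read out with a cell viability assay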
Description: SANGER: Inhibition of human GCT cell growth in a cell viability assay.

VMRC-RCZ = experiment: cells; type: functional, cell-based, Homo sapiens; settings: Homo sapiens, VMRC-RCZ
Description: SANGER: Inhibition of human VMRC-RCZ cell growth in a cell viability assay.

MEL-HO = experiment: cells; type: functional, cell-based, Homo sapiens; settings: Homo sapiens, MEL-HO
Description: SANGER: Inhibition of human MEL-HO cell growth in a cell viability assay.

SF-295 = experiment: cells; type: functional, cell-based, Homo sapiens; settings: Homo sapiens, SF-295;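 note: growth inhibition of SF-295 cells, read out with a cell viability assay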
Description: SANGER: Inhibition of human SF295 cell growth in a cell viability assay.

MKN-7 = experiment: cells; type: functional, cell-based, Homo sapiens; settings: Homo sapiens, MKN-7;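 note: growth inhibition of MKN-7 cells, read out with a cell viability assay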
Description: SANGER: Inhibition of human MKN7 cell growth in a cell viability assay.

DOK = experiment: cells; type: functional, cell-based, Homo sapiens; settings: Homo sapiens, DOK;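 note: cell viability assay read-out, values reflect inhibition of cell growth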
Description: SANGER: Inhibition of human DOK cell growth in a cell viability assay.

UACC-62 = experiment: cells; type: functional, cell-based, Homo sapiens; settings: Homo sapiens, UACC-62;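 note: growth inhibition of human UACC-62 cells, read out by a cell viability assay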
Description: SANGER: Inhibition of human UACC-62 cell growth in a cell viability assay.

THP-1 = experiment: cells; type: functional, cell-based, Homo sapiens; settings: Homo sapiens, THP-1;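 note: growth inhibition of THP-1 cells, read out via a cell viability assay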
Description: SANGER: Inhibition of human THP-1 cell growth in a cell viability assay.

BOKU = experiment: cells; type: functional, cell-based, Homo sapiens; settings: Homo sapiens, BOKU;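 note: growth inhibition of the human BOKU cell line, read out by a cell viability assay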
Description: SANGER: Inhibition of human BOKU cell growth in a cell viability assay.

SK-MM-2 = experiment: cells; type: functional, cell-based, Homo sapiens; settings: Homo sapiens, SK-MM-2;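 note: growth inhibition of human SK-MM-2 cells, read out with a cell viability assay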
Description: SANGER: Inhibition of human SK-MM-2 cell growth in a cell viability assay.

SW1783 = experiment: cells; type: functional, cell-based, Homo sapiens; settings: Homo sapiens, SW1783
Description: SANGER: Inhibition of human SW1783 cell growth in a cell viability assay.

NCI-H520 = experiment: cells; type: functional, cell-based, Homo sapiens; settings: Homo sapiens, NCI-H520;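 note: growth inhibition of NCI-H520 cells, measured by a cell viability assay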
Description: SANGER: Inhibition of human NCI-H520 cell growth in a cell viability assay.

DK-MG = experiment: cells; type: functional, cell-based, Homo sapiens; settings: Homo sapiens, DK-MG;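 note: growth inhibition of DK-MG cells, read out with a cell viability assay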
Description: SANGER: Inhibition of human DK-MG cell growth in a cell viability assay.

EVSA-T = experiment: cells; type: functional, cell-based, Homo sapiens; settings: Homo sapiens, EVSA-T;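 note: growth inhibition of EVSA-T cells, read out with a cell viability assay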
Description: SANGER: Inhibition of human EVSA-T cell growth in a cell viability assay.

CMK = experiment: cells; type: functional, cell-based, Homo sapiens; settings: Homo sapiens, CMK;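 note: growth inhibition of CMK cells, read out as cell viability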
Description: SANGER: Inhibition of human CMK cell growth in a cell viability assay.

SW756 = experiment: cells; type: functional, cell-based, Homo sapiens; settings: Homo sapiens, SW756;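 note: growth inhibition of human SW756 cells, read out with a cell viability assay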
Description: SANGER: Inhibition of human SW756 cell growth in a cell viability assay.

KYSE-270 = experiment: cells; type: functional, cell-based, Homo sapiens; settings: Homo sapiens, KYSE-270;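 note: cell growth inhibition measured with a viability assay in the human KYSE-270 line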
Description: SANGER: Inhibition of human KYSE-270 cell growth in a cell viability assay.

A-431 = experiment: cells; type: functional, cell-based, Homo sapiens; settings: Homo sapiens, A-431;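 note: growth inhibition of A-431 cells, determined with a cell viability read-out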
Description: SANGER: Inhibition of human A431 cell growth in a cell viability assay.

ChaGo-K-1 = experiment: cells; type: functional, cell-based, Homo sapiens; settings: Homo sapiens, ChaGo-K-1;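 note: growth inhibition of ChaGo-K-1 cells, read out with a cell viability assay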
Description: SANGER: Inhibition of human ChaGo-K-1 cell growth in a cell viability assay.

UMUC3 = experiment: cells; type: functional, cell-based, Homo sapiens; settings: Homo sapiens, UMUC3;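 note: growth inhibition of human UM-UC-3 cells, read out with a cell viability assay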
Description: SANGER: Inhibition of human UM-UC-3 cell growth in a cell viability assay.

SK-MES-1 = experiment: cells; type: functional, cell-based, Homo sapiens; settings: Homo sapiens, SK-MES-1;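 note: growth inhibition of human SK-MES-1 cells, read out with a cell viability assay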
Description: SANGER: Inhibition of human SK-MES-1 cell growth in a cell viability assay.

NY = experiment: cells; type: functional, cell-based, Homo sapiens; settings: Homo sapiens, NY
Description: SANGER: Inhibition of human NY cell growth in a cell viability assay.

COR-L23 = experiment: cells; type: functional, cell-based, Homo sapiens; settings: Homo sapiens, COR-L23;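 note: cell viability assay measuring how strongly compounds suppress growth of COR-L23 cells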
Description: SANGER: Inhibition of human COR-L23 cell growth in a cell viability assay.

SR = experiment: cells; type: functional, cell-based, Homo sapiens; settings: Homo sapiens, SR
Description: SANGER: Inhibition of human SR cell growth in a cell viability assay.

CESS = experiment: SANGER: Inhibition of human CESS cell growth in a cell viability assay.; type: functional, cell-based; settings: Homo sapiens, CESS
NCI-H1693 = experiment: cells; type: functional, cell-based, Homo sapiens; settings: Homo sapiens, NCI-H1693;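 note: growth inhibition of the human cell line, read out with a cell viability assay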
Description: SANGER: Inhibition of human NCI-H1693 cell growth in a cell viability assay.

RCM-1 = experiment: cells; type: functional, cell-based, Homo sapiens; settings: Homo sapiens, RCM-1;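 note: growth inhibition of the RCM-1 line, determined with a cell viability readout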
Description: SANGER: Inhibition of human RCM-1 cell growth in a cell viability assay.

BC1 cell line = experiment: SANGER: Inhibition of human BC-1 cell growth in a cell viability assay.; type: functional, cell-based; settings: Homo sapiens, BC1

`Cc1cc([N+](=O)[O-])ccc1NS(=O)(=O)c1cc(Cl)ccc1Cl` was tested, and the IC50 (HN) was > 32 µM, the IC50 (HCC1954) was 3.62 µM and the IC50 (HuCCT-1) was 7.32 µM. It also gave an IC50 (SW-620) of 3.93 µM, an IC50 (HGC-27) of 4.03 µM and an IC50 (SW13) of 1.99 µM. For the same compound, the IC50 (HuP-T3) was 11.2 µM, the IC50 (T47D) was 26.9 µM and the IC50 (SK-LU-1) was 3.27 µM. The IC50 (BFTC-909) was 3.61 µM, the IC50 (TUR) was 9.58 µM and the IC50 (SAS) was > 32 µM. For the same compound, the IC50 (PC-14) was 20 µM, the IC50 (YAPC) was > 32 µM and the IC50 (NCI-H187) was 12.3 µM. The IC50 (HO-1-N-1) was > 32 µM, the IC50 (SW780) was 6.1 µM and the IC50 (GCT) was 2.93 µM. The IC50 (VMRC-RCZ) was 6.97 µM, the IC50 (MEL-HO) was 6.53 µM and the IC50 (SF-295) was 2.34 µM. The IC50 (MKN-7) was > 32 µM, the IC50 (DOK) was > 32 µM and the IC50 (UACC-62) was 0.256 µM. The IC50 (THP-1) was 19.6 µM, the IC50 (BOKU) was 4.36 µM and the IC50 (SK-MM-2) was > 32 µM. For the same compound, the IC50 (SW1783) was 7.15 µM, the IC50 (NCI-H520) was 6.2 µM and the IC50 (DK-MG) was 12.3 µM. It also gave an IC50 (EVSA-T) of 11.9 µM, an IC50 (CMK) of 4.81 µM and an IC50 (SW756) of 2.97 µM. It also gave an IC50 (KYSE-270) of 3.03 µM, an IC50 (A-431) of 2.09 µM and an IC50 (ChaGo-K-1) of 4.12 µM. The IC50 (UMUC3) was 1.67 µM, the IC50 (SK-MES-1) was 2.07 µM and the IC50 (NY) was 3.32 µM. For the same compound, the IC50 (COR-L23) was 2.63 µM, the IC50 (SR) was 4.95 µM and the IC50 (CESS) was > 32 µM. The IC50 (NCI-H1693) was > 32 µM, the IC50 (RCM-1) was 8.76 µM and the IC50 (BC1 cell line) was 3.6 µM.

For `Oc1ccc2ccccc2c1SSc1c(O)ccc2ccccc12`, the IC50 (HN) was > 32 µM, the IC50 (HCC1954) was > 32 µM and the IC50 (HuCCT-1) was 20.1 µM. The IC50 (SW-620) was > 32 µM, the IC50 (HGC-27) was 17.2 µM and the IC50 (SW13) was > 32 µM. For the same compound, the IC50 (HuP-T3) was > 32 µM, the IC50 (T47D) was > 32 µM and the IC50 (SK-LU-1) was 18.9 µM. For the same compound, the IC50 (BFTC-909) was > 32 µM, the IC50 (TUR) was > 32 µM and the IC50 (SAS) was > 32 µM. The IC50 (PC-14) was > 32 µM, the IC50 (YAPC) was > 32 µM and the IC50 (NCI-H187) was > 32 µM. For the same compound, the IC50 (HO-1-N-1) was > 32 µM, the IC50 (SW780) was > 32 µM and the IC50 (GCT) was > 32 µM. The IC50 (VMRC-RCZ) was 14.1 µM, the IC50 (MEL-HO) was > 32 µM and the IC50 (SF-295) was > 32 µM. For the same compound, the IC50 (MKN-7) was > 32 µM, the IC50 (DOK) was > 32 µM and the IC50 (UACC-62) was > 32 µM. The IC50 (THP-1) was > 32 µM, the IC50 (BOKU) was > 32 µM and the IC50 (SK-MM-2) was > 32 µM. The IC50 (SW1783) was > 32 µM, the IC50 (NCI-H520) was > 32 µM and the IC50 (DK-MG) was > 32 µM. For the same compound, the IC50 (EVSA-T) was > 32 µM, the IC50 (CMK) was 3.15 µM and the IC50 (SW756) was > 32 µM. For the same compound, the IC50 (KYSE-270) was > 32 µM, the IC50 (A-431) was > 32 µM and the IC50 (ChaGo-K-1) was > 32 µM. For the same compound, the IC50 (UMUC3) was > 32 µM, the IC50 (SK-MES-1) was 11.6 µM and the IC50 (NY) was > 32 µM. The IC50 (COR-L23) was 11.8 µM, the IC50 (SR) was 5.37 µM and the IC50 (CESS) was 12.4 µM. For the same compound, the IC50 (NCI-H1693) was > 32 µM, the IC50 (RCM-1) was > 32 µM and the IC50 (BC1 cell line) was > 32 µM.
